From patent US7618657B2, “Active ingredients preparation and single compound purification from traditional Chinese herbal medicine Fructus Trichosanthis and uses thereof” (priority 2003, dated 2009) come the findings set out here.

The test system of experiment [1] is K562 cells. Description: FACS analysis of fetal hemoglobin expression in treated K562 cells. The class given is cell-based, human. As to conditions: HU 25 mg/ml, 6 days, FIG. 7. How it is done: K562 cells were cultured with hydroxyurea (HU, 25 mg/ml) and the lead compound from Trichosanthes (12.5 ng/ml) for 6 days. Then the cells were conjugated with PE labeled mouse anti human fetal hemoglobin monoclonal antibodies (Becton Dickinson) followed by FACS analysis. In brief, 1×10^6 cells were collected in a 15 ml falcon tube and centrifuged in 150 rpm for 5 min. The cell pallet was washed with PBS. Then cells were fixed by gently mixing with 1 ml PBS with 4% formaldehyde (37-40%, Merck) for 1 hr at room temperature. The fixed cells were washed once with PBS and then were resuspended in 100 μl 0.01% Triton X-100 (Merck) in PBS/0.1% BSA (Sigma). 20 μl monoclonal antibody was added in, followed by mixing thoroughly and incubating for 30 min in darkness at room temperature, with frequent gentle shaking. Finally the cells were washed with 1× PBS with 0.1% sodium azide once and kept in 4° C. until analysis.
For orientation: A flow cytometer gives signals particle by particle.

For experiment [2], the system named is K562 cells. Description: TMB staining of hemoglobin positive K562 cells. The format is cell-based, human. As to conditions: six days culture, hydroxyurea (positive control) 25.0 μg/ml. How it is done:
K562 cells (ATCC) were cultured in RPMI 1640 (Gibco) supplemented with 10% fetal calf serum (FCS, Gibco) and 1% PSN (Gibco). The cultures were maintained under a humidified atmosphere with 95% air/5% CO2 at 37° C.
The hemoglobin positive K562 cells can be identified by 3,3′,5,5′-tetramethylbenzidine (TMB, Sigma) staining. In brief, 10 μl/cell suspension was pipetted out and mixed with 10 μl TMB working solution. Five minutes later, cells were scored as positive (blue) or negative (pale yellow) at 200× microscope.
Before the assay, K562 cells were scored first by TMB staining to ensure there was no selfdifferentiation (TMB positive cell percentage less than 1.0%). 100 μl/well complete RPMI 1640 was added into a 96-well plate, and 180 μl was added in the first well. 20 μl Trichosanthes extraction components was added into the first well immediately. Then 100 μl of the mixture was transferred to the next well. By such one half dilution method, serial dilutions of Trichosanthes extraction components were got.
100 μl K562 cell suspension with the density of 4×10^4 cells/ml was add into each well of the 96-well plate. […] Then the hemoglobin positive cells were recorded by TMB staining.
Dose-response effect of the lead compound from Trichosanthes was studied on K562 cells which were cultured and assayed as described in example 3. […] Then the hemoglobin positive cells were recorded by TMB staining.

As for `NC(=O)NO` [Hydroxyurea, hydroxyurea], the “expression of fetal hemoglobin (FACS, PE labeled anti human fetal hemoglobin antibody)” value in experiment [1] is reported as “induced”. Moreover, the “TMB Positive Cell Percentage” value in experiment [2] amounted to 66.7 ± 4.4%.
